# Test results taken from a melting point compilation (Tetko et al.; mined from patent text by program, amines drawn as free bases though some values may be those of a salt).
row,melting point,Structure (SMILES)
1,240 to 242 °C,O=C(Nc1ccc(C(=O)N2CCc3nc(-c4ccccn4)[nH]c3-c3ccccc32)cc1)c1ccccc1-c1ccccc1
2,77 to 78 °C,O=C(Cl)N1CC(Oc2ccc(Br)cc2)C1
3,220 to 222 °C,Cc1nc(NC(CO)C(C)SCc2ccccc2)c2nc(-c3ccccc3)cc-2[nH]1 (stereo not drawn)
4,119 to 120 °C,N[C@@H](Cc1cccc(OC(F)(F)C(F)F)c1)[C@H](O)c1ccnc(F)c1 (racemic)
5,257 to 258 °C,Cc1cccc(C(=O)Nc2c[nH]nc2C(=O)NCC(F)(F)F)n1
6,110 °C,CCc1sc2c(c1S(=O)(=O)c1ccc(OCCCN(C)C(C)c3ccc(OC)c(OC)c3)cc1)CN(Cc1ccccc1Cl)CC2 (stereo not drawn)
7,144 to 145 °C,O=C(OCc1ccccc1)N1CCc2c(sc3nc(CCl)c(Cl)c(-c4ccc(OCc5ccccc5)cc4)c23)C1
8,176 to 177 °C,CS(=O)c1ccc(-c2coc3ccc(-c4nnc(SCc5cccc(C(F)(F)F)c5)o4)cc23)cc1 (stereo not drawn)
9,134 to 136 °C,CC(=O)Oc1c(C)cc(C(=O)Nc2c(CO)nc3c(C)cc(C)cc3c2-c2ccccc2Cl)cc1C
10,172 to 179 °C,CCS(=O)(=O)CCC(=O)NNC(=O)N1Cc2ccccc2Oc2ccc(N)cc21
11,153 °C,CC(C)(C)NCC(O)COc1ccc2c(=O)cc(-c3cc(O)cc(O)c3)oc2c1 (stereo not drawn)
12,112 to 114 °C,CC(=O)OCC(OC(C)=O)C(OC(C)=O)C(OC(C)=O)C(C=O)OC(C)=O (stereo not drawn)
13,140 to 143 °C,O=C(O)CN1CCN(CCNC(=O)c2cc3ccc(C4OC(CO)C(O)C(O)C4O)cc3oc2=O)CC1 (stereo not drawn)
14,204 to 205 °C,CS(=O)(=O)c1ccc(-n2nc(C(F)(F)F)cc2-c2nc3cc(F)ccc3s2)cc1
15,124 °C,COC(=O)n1cc(C)c2c(OCc3ccccc3)c(OC)ccc21
16,45 to 46 °C,CCCCCCCCCCc1nc(N(C)C)nc(OC)c1Br
17,66 to 68 °C,CCN(CC)CCOc1ccc2cc3ccc(OCCN(CC)CC)c(Br)c3nc2c1Br
18,104 °C,O=C1C(Cl)=C(CC2CCCC(C(F)(F)F)C2)C(=O)c2ccccc21 (stereo not drawn)
19,150 °C,COc1ccc(C23CC(c4ccccc4)C(=O)N2CCN3)cc1 (stereo not drawn)
20,129 to 137 °C,CCN(CC)OCc1cc(C(C)(C)C)c(O)c(C(C)(C)C)c1
21,206 to 209 °C,COc1ccc(-c2cc3c(N4CCOCC4)nnc(N4CCOCC4)c3c(C)n2)cc1
22,270 to 272 °C,N#Cc1cc(-c2ccccc2)c(C(=O)O)cn1
23,255 to 257 °C,CN1CCN(c2ncnc3oc(C4=CC=CN(N5CCOCC5)C4)c(-c4ccccc4)c23)CC1

row,melting point,Structure (SMILES)
1,60 to 62 °C,BrCCc1ccc2c(c1)CCO2
2,221 to 224 °C,COc1cc(CNc2nc(N)n3nc(-c4ccco4)nc3n2)cc(OC)c1OC
3,152 to 153 °C,CNC(=S)Nc1ccccc1-c1ccccc1
4,224 to 226 °C,COc1ccc(C(=O)O)c(Cl)c1Cl
5,80 to 86 °C,N#CC(C#N)=C1N(CCCN2CCCCC2)CCN1CCN1CCCCCC1
6,228 to 229 °C,CCOC(=O)Oc1c(OC)cc(C=CC(=O)Nc2cnc3c(C)cc(C)cc3c2-c2ccccc2Cl)cc1OC
7,130 to 140 °C,O=C(O)c1cc(Cl)cc2c1CCCC2
8,110 to 113 °C,CCCCNC(=O)NS(=O)(=O)c1ccccc1-c1ccno1
9,165 to 166 °C,Cc1ccc(-c2c(NS(=O)(=O)c3ccc(C(C)(C)C)cc3)ncnc2OCCOc2ccc(-c3nnn[nH]3)cc2)cc1
10,200 to 201 °C,COc1cccc([C@H]2O[C@H](CC(=O)Nc3ccc4[nH]c(C(=O)O)cc4c3)C(=O)N(CC(C)(C)CO)c3ccc(Cl)cc32)c1OC
11,275 to 278 °C,Cc1cc(C)cc(-c2nc(NC(=O)C3CCCC3)sc2-c2ccncc2)c1
12,142 °C,COc1ccc(S(=O)(=O)N2c3ccccc3CC2C(=O)NO)cc1 (stereo not drawn)
13,118 to 119 °C,Cn1c(SC(C)(CO)c2ccccc2)cc2ccccc21 (stereo not drawn)
14,124 to 126 °C,O=C(OC1CCN(c2ncc(-c3ccccc3Cl)cn2)CC1)N1CCC(O)CC1
15,201 °C,Cn1c(=O)c2c(ncn2CCN2CCC(c3c[nH]c4ccccc34)CC2)n(C)c1=O
16,115 to 117 °C,COC(=O)[C@H](Cc1ccccc1)NC(=O)[C@H](Cc1ccccc1)NC(=S)Cc1ccc(C)cc1
17,29 to 31 °C,CCNc1nc(NCCN2CCCC2)nc(Nc2ccc(OC)cc2)n1
18,122 to 124 °C,O=C(O)COc1ccc(SCc2ccc(-c3ccc(C(F)(F)F)cc3)cc2)c2c1CCCO2
19,106 to 108 °C,CC(=NOCCCC(=O)O)c1ccc(Cl)cc1
20,170 °C,O=C(O)C#Cc1ccc(-c2ccccc2)cc1
21,100 to 102 °C,COc1ccc(C(=O)c2ccc(OCc3nc(-c4ccccc4)oc3C)cc2)c(OC(C)C(=O)O)c1 (stereo not drawn)
22,198 to 200 °C,c1ccc2[nH]c(Cn3ccnc3)nc2c1
23,54 to 55 °C,COC12CC(C)(C)C(OC(C)=O)C(C=C1C)O2 (stereo not drawn)

row,melting point,Structure (SMILES)
1,213 to 215 °C,O=C1CC2(CCCCC2)CC(=O)N1c1ccncc1
2,100 to 105 °C,COc1cc2c(cc1OC)CN(CCC1OCC(C)(C)c3cc(OC)c(OC)cc31)CC2 (stereo not drawn)
3,230 °C,N#CC1=C(c2cccs2)Nc2n[nH]cc2C1c1cccc2nonc12 (stereo not drawn)
4,185 to 186 °C,CNS(=O)(=O)c1cc2ccccc2cc1CC(=O)O
5,83 to 86 °C,OC1Sc2ccccc2-c2ccccc21 (stereo not drawn)
6,239 to 241 °C,O=C1NCCN1c1ccc(S(=O)(=O)Nc2ccc3[nH]ccc3c2)cc1
7,99 to 100 °C,O=C(O)c1ccc(Oc2ccc3c(c2)CCN(CCN2CCCC2)C3=O)cc1
8,> 200 °C,Oc1ccc(-c2nn(-c3cccc(F)c3)c3cc(O)ccc23)c(O)c1
9,218 to 219 °C,CC(C)(C)c1ccc(COc2cc3c(cc2C(=O)c2ccc(C(=O)O)cc2)C(C)(C)CCC3(C)C)cc1
10,278 to 280 °C,CC(=O)Nc1cc(F)cc2c1OCCC21SC(=O)NC1=O (stereo not drawn)
11,187 to 190 °C,N#Cc1cccc(OC(=O)C(=O)Oc2cccc(C#N)c2)c1
12,159 to 160 °C,CCCCCS(=O)(=O)NC(=O)/C=C/c1cc(OCCCC)nn1Cc1ccc(C(F)(F)F)cc1
13,146 to 148 °C,Cc1c(C)c2c(c(C)c1O)CCC(C)(COc1ccc(NC(=S)NC(c3ccccc3)c3ccccc3)cc1)O2 (stereo not drawn)
14,186 to 188 °C,CC1(C)C(C=C(C#N)c2ccccc2)C1C(=O)O (stereo not drawn)
15,264 to 266 °C,COc1ccc(-n2nc(O)c3c(c2=O)Cc2ccc(Cl)cc2N3)c(C)c1
16,148 °C,Nc1ccc(NC(=O)OCc2ccccc2)c(O)c1
17,208 to 212 °C,CC(C)Cn1cnc2c1c1ccccc1n1nnnc21
18,169 to 171 °C,CCn1c(=O)ccc2cnc(Nc3ccc(OCCOC)cc3)nc21
19,130 °C,COc1ccc2nc(N3CCNCC3)cc(C(F)(F)F)c2c1
20,72 to 74 °C,CCOC(=O)c1cc(=O)c2c(OCC(O)COc3cccc(C)c3)cccc2o1 (stereo not drawn)
21,140 to 142 °C,CC(C)n1c(CC[C@@H](O)C[C@@H](O)CC(=O)O)c(-c2ccc(F)cc2)c(-c2ccc(F)cc2)c1C(=O)NCc1ccc(C(=O)O)cc1
22,195 to 198 °C,Cc1nc2cccc(OCC(C)(C)NC(=O)CC(C)C)c2c(N)c1C(=O)O
23,199 to 200 °C,C=CCOc1ncnc2nc[nH]c12

row,melting point,Structure (SMILES)
1,123 to 125 °C,COC(=O)CS(=O)(=O)CCCCN(c1cnc(-c2ccccc2)c(-c2ccccc2)n1)C(C)C
2,105 to 107 °C,CCOC(=O)c1ccc(CCN2CCN(C(=O)CCc3cc(C(C)(C)C)c(O)c(C(C)(C)C)c3)CC2)cc1
3,197 to 199 °C,COc1ccc2c(c1)c(=O)oc1c(C(C)=O)c(O)ccc12
4,63.5 to 64 °C,CSC1=CNSC1(C#N)SC (stereo not drawn)
5,160 to 161 °C,CC(C)(C)OC(=O)CCc1ccc(-c2nc(=O)c3ccccc3s2)nc1
6,293 to 294 °C,COc1ccc(C2C3=C(COC3=O)Nc3ccc4cc(C)[nH]c4c32)cc1O (stereo not drawn)
7,142 to 143 °C,c1ccc2c(c1)Sc1ccccc1C1=C2CCNCC1
8,70 to 71 °C,Cc1cc2ccccc2n1-c1ccc(OCc2ccccc2)c(F)c1
9,70 °C,CC(C)(C)OC(=O)CNc1ccccc1F
10,269 to 271 °C,O=C(O)c1cc(=O)c2oc3ccc(Cl)cc3c(=O)c2n1Cc1ccccc1
11,186 °C,CCCCNC(=O)NCCCn1c(CCCC)nc2c(N)nc3ccccc3c21
12,205 to 213 °C,COc1ccc(C(N)C2(C(=O)O)C3CC4CC(C3)CC2C4)cc1 (stereo not drawn)
13,179 to 181 °C,CN(Cc1cc(C(F)(F)F)cc(C(F)(F)F)c1)C(=O)c1c(-c2ccc(F)cc2)c2ccncc2c(=O)n1C
14,45 to 47 °C,CC(C)(CO)CCCCCCCCCCCC(C)(C)CO
15,178 to 180 °C,COc1c(C)cc(C)cc1/C=C/C(=O)O
16,264 to 266 °C,O=C(O)c1cc(O)c(C(=O)c2ccccc2)c([N+](=O)[O-])c1
17,> 250 °C,O=C1Nc2c(F)cccc2C12COc1cc3c(cc12)CCO3 (stereo not drawn)
18,203 to 204 °C,CC1(O/N=C(\C(=O)O)c2csc(N)n2)CCCCC1
19,152 to 154 °C,Cc1cc(-n2cnnc2)ccc1N
20,> 290 °C,Cc1c(CC=CNC(=O)Nc2ccccc2)[nH]c(=O)c2c1ccc1nc(Nc3c(Cl)cccc3Cl)n(C)c12
21,219 to 220 °C,CCOC(=O)C1=C(C)NC2=C(C(=O)OC2)C1c1ccccc1OC (stereo not drawn)
22,114 to 117 °C,COc1ccc2c(c1)c(C1=C(c3cn(C)c4ccc(OC)cc34)C(=O)N(C)C1=O)cn2C
23,78 °C,"CC(=O)SCC(Cc1ccccc1)NC(=O)N1CCN(C)CC1 (single isomer, unassigned; (+))"

row,Structure (SMILES),melting point
1,O=S1(=O)CC2C(C1)N(CCO)CCN2CCO (stereo not drawn),145 to 147 °C
2,CN1Cc2c(-c3nc(C4CC4)no3)ncn2-c2cccc(Br)c2C1=O,187 to 189 °C
3,CCc1[nH]c2cc(F)ccc2c1C1=CCNCC1,194 to 196 °C
4,NC(=O)CNC(=O)CN1CCCC1=O,147 to 148 °C
5,COc1cccc(-c2cc(=O)c3c(OC)cc(OC)c(C4=CCN(C)CC4)c3o2)c1OC,195 to 196 °C
6,Cc1cccc(Cl)c1NC1=NCCN1,112 to 114 °C
